Values after ≈ are worked out from the molar mass of the structure shown.
Columns and labels:
Type in all cases: cell-based
[1] = test system: gentamicin, streptmycin, vancomycin resistant Enterococcus faecalis (ATCC 51299); experiment: microbe, parasite or virus in culture; settings: for MIC VREF: Enterococcus faecalis ATCC51299, vancomycin resistance; for MIC: Enterococcus faecalis, ATCC51299, read-out: MIC VREF
Method in brief: (§1)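 Broth microdilution in cation-adjusted Mueller-Hinton broth, 12-step two-fold series from 5 μg/mL to […], mixed 1:1 with 10^6 CFU/mL cell suspension and incubated 24 h at 37 °C. MTT (1 mg/mL solution) is then added for 30 min (S. aureus, MRSA) or 2 h (E. faecalis strains). MIC = lowest concentration inhibiting growth.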

[2] = test system: Enterococcus faecalis CL5244, VanB; experiment: MIC susceptibility test; settings: Enterococcus faecalis CL5244, VanB; for MIC: read-out: MIC CL5244
Method in brief: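 MTT-based broth microdilution in cation-adjusted Mueller-Hinton broth; two-fold 12-step dilutions […], inoculum 10^6 CFU/mL, 37° C for 24 h.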

[3] = test system: Staphylococcus aureus (ATCC 29213); experiment: MIC susceptibility test, microdilution with MTT readout; settings: Staphylococcus aureus ATCC29213; for MIC: read-out: MIC SA
Method in brief: as §1

[4] = test system: Methicillin resistant Staphylococcus aureus (ATCC 33591); experiment: as above; settings: Staphylococcus aureus ATCC3359, Methicillin resistance; for MIC: ATCC 3359 / ATCC 33591 / MRSA, read-out: MIC MRSA
Method in brief: as §1

[5] = test system: Enterococcus faecalis (ATCC 29212); experiment: as above; settings: Enterococcus faecalis ATCC29212; for MIC: read-out: MIC EF
Method in brief: as §1

[6] = test system: Bacillus cereus (ATCC 11778); experiment: as above; settings: for MIC BC: Bacillus ceres ATCC11778; for MIC: Bacillus cereus, ATCC11778, read-out: MIC BC
Method in brief: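 Bacillus cereus ATCC® 11778 susceptibility was measured by broth microdilution in 96-well microplates using Cation Adjusted Mueller-Hinton broth. Samples were diluted two-fold from 5 μg/mL over 12 steps. Each well combined 100 μL of cell suspension (10^6 CFU/mL) with 100 μL of antibiotic solution and was incubated at 37° C. for 24 h. Then 50 μL of MTT (1 mg/mL) was added for 30 min, and MIC (μg/mL) was read as the lowest concentration inhibiting growth.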

[7] = test system: Enterococcus faecium CL5137, VanA; experiment: MIC susceptibility test; settings: Enterococcus faecium CL5137, VanA; for MIC: read-out: MIC CL5137

Row | SMILES | MIC VREF [1] [µg/mL] | MIC CL5244 [2] [µg/mL] | MIC SA [3] [µg/mL] | MIC MRSA [4] [µg/mL] | MIC EF [5] [µg/mL] | MIC BC [6] [µg/mL] | MIC CL5137 [7] | MIC [1] [µg/mL] | MIC [2] [µg/mL] | MIC [3] [µg/mL] | MIC [4] [µg/mL] | MIC [5] [µg/mL] | MIC [6] [µg/mL] | MIC [7] [µg/mL]
1 | CCCCCCCCCCNC1(C)CC(OC2C(Oc3c4cc5cc3Oc3ccc(cc3Cl)C(O)C3NC(=O)C(NC(=O)C5NC(=O)C(CC(N)=O)NC(=O)C(NC(=O)C(CC(C)C)NC)C(O)c5ccc(c(Cl)c5)O4)c4ccc(O)c(c4)-c4c(O)cc(O)cc4C(C(=O)O)NC3=O)OC(CNCc3ccc(-c4ccc(Cl)cc4)o3)C(O)C2O)OC(C)C1O (centres unmarked) [XLIX, Glucose-C6-N-5-(4-chlorophenyl)furan-1-methylene-vancosamine-N-decyl Vancomycin] | 1.3 (≈ 0.731 µM) | 0.8 (≈ 0.45 µM) | 5.0 (≈ 2.81 µM) | 2.5 (≈ 1.41 µM) | 1.9 (≈ 1.07 µM) | 3.8 (≈ 2.14 µM) | 13 µg/mL (≈ 7.31 µM) | – | – | – | – | – | – | –
2 | CN[C@@H](CC(C)C)C(=O)N[C@H]1C(=O)N[C@@H](CC(N)=O)C(=O)N[C@H]2C(=O)NC3C(=O)N[C@H](C(=O)N[C@@H](C(=O)O)c4cc(O)cc(O)c4-c4cc3ccc4O)[C@H](O)c3ccc(c(Cl)c3)Oc3cc2cc(c3OC2OC(CN=[N+]=[N-])C(O)C(O)C2OC2CC(C)(N)C(O)C(C)O2)Oc2ccc(cc2Cl)[C@H]1O (some centres unmarked) [XLVI, Glucose-C6-azide Vancomycin] | – | – | – | – | – | – | – | 2.5 (≈ 1.7 µM) | 25 (≈ 17 µM) | 0.63 (≈ 0.427 µM) | 1.3 (≈ 0.882 µM) | 1.3 (≈ 0.882 µM) | 1 (≈ 0.678 µM) | > 50
3 | CNC(CC(C)C)C(=O)NC1C(=O)NC(CC(N)=O)C(=O)NC2C(=O)NC3C(=O)NC(C(=O)NC(C(=O)O)c4cc(O)cc(O)c4-c4cc3ccc4O)C(O)c3ccc(c(Cl)c3)Oc3cc2cc(c3OC2OC(CN)C(O)C(O)C2OC2CC(C)(N)C(O)C(C)O2)Oc2ccc(cc2Cl)C1O (centres unmarked) [XLVII, Glucose-C6-amine Vancomycin] | 1 (≈ 0.69 µM) | 25 (≈ 17.3 µM) | 0.63 (≈ 0.435 µM) | 0.32 (≈ 0.221 µM) | 1.9 (≈ 1.31 µM) | 1.0 (≈ 0.69 µM) | 50< μg/mL | – | – | – | – | – | – | –
4 | CNC(CC(C)C)C(=O)NC1C(=O)NC(CC(N)=O)C(=O)NC2C(=O)NC3C(=O)NC(C(=O)NC(C(=O)O)c4cc(O)cc(O)c4-c4cc3ccc4O)C(O)c3ccc(c(Cl)c3)Oc3cc2cc(c3OC2OC(CNCc3ccc(-c4ccc(Cl)cc4)cc3)C(O)C(O)C2OC2CC(C)(N)C(O)C(C)O2)Oc2ccc(cc2Cl)C1O (centres unmarked) [XXIX, Glucose-C6-N-4-(4-chlorophenyl)benzyl Vancomycin] | 0.63 (≈ 0.382 µM) | 0.6 (≈ 0.364 µM) | 0.63 (≈ 0.382 µM) | 0.63 (≈ 0.382 µM) | 0.63 (≈ 0.382 µM) | 0.63 (≈ 0.382 µM) | 50 µg/mL (≈ 30.3 µM) | – | – | – | – | – | – | –
5 | CNC(CC(C)C)C(=O)NC1C(=O)NC(CC(N)=O)C(=O)NC2C(=O)NC3C(=O)NC(C(=O)NC(C(=O)O)c4cc(O)cc(O)c4-c4cc3ccc4O)C(O)c3ccc(c(Cl)c3)Oc3cc2cc(c3OC2OC(CNCc3ccc(-c4ccc(Cl)cc4)o3)C(O)C(O)C2OC2CC(C)(N)C(O)C(C)O2)Oc2ccc(cc2Cl)C1O (centres unmarked) [XXX, Glucose-C6-N-5-(4-chlorophenyl)furan-1-methylene Vancomycin] | 0.63 (≈ 0.384 µM) | 1.6 (≈ 0.976 µM) | 0.32 (≈ 0.195 µM) | 0.32 (≈ 0.195 µM) | 0.63 (≈ 0.384 µM) | 0.63 (≈ 0.384 µM) | 50< μg/mL | – | – | – | – | – | – | –
6 | CN[C@@H](CC(C)C)C(=O)N[C@H]1C(=O)N[C@@H](CC(N)=O)C(=O)N[C@H]2C(=O)NC3C(=O)N[C@H](C(=O)N[C@@H](C(=O)O)c4cc(O)cc(O)c4-c4cc3ccc4O)[C@H](O)c3ccc(c(Cl)c3)Oc3cc2cc(c3OC2OC(CNCc3cc(Cl)ccc3O)C(O)C(O)C2OC2CC(C)(N)C(O)C(C)O2)Oc2ccc(cc2Cl)[C@H]1O (some centres unmarked) [XXXIX, Glucose-C6-5-chloro-2-hydroxy-benzylamine Vancomycin] | – | – | – | – | – | – | – | > 5 | 25 (≈ 15.7 µM) | 1.3 (≈ 0.818 µM) | 1.3 (≈ 0.818 µM) | 2.5 (≈ 1.57 µM) | 1.3 (≈ 0.818 µM) | > 50
7 | CNC(CC(C)C)C(=O)NC1C(=O)NC(CC(N)=O)C(=O)NC2C(=O)NC3C(=O)NC(C(=O)NC(C(=O)O)c4cc(O)cc(O)c4-c4cc3ccc4O)C(O)c3ccc(c(Cl)c3)Oc3cc2cc(c3OC2OC(CNC(=O)c3cnc4ccccc4n3)C(O)C(O)C2OC2CC(C)(N)C(O)C(C)O2)Oc2ccc(cc2Cl)C1O (centres unmarked) [XXXVII, Glucose-C6-N-2-quinoxaloyl Vancomycin] | 0.32 (≈ 0.199 µM) | 1.6 (≈ 0.997 µM) | 0.32 (≈ 0.199 µM) | 0.63 (≈ 0.393 µM) | 0.32 (≈ 0.199 µM) | 0.32 (≈ 0.199 µM) | 50< μg/mL | – | – | – | – | – | – | –
8 | CNC(CC(C)C)C(=O)NC1C(=O)NC(CC(N)=O)C(=O)NC2C(=O)NC3C(=O)NC(C(=O)NC(C(=O)O)c4cc(O)cc(O)c4-c4cc3ccc4O)C(O)c3ccc(c(Cl)c3)Oc3cc2cc(c3OC2OC(CNC(=O)c3ccc(-c4ccc(Cl)cc4)cc3)C(O)C(O)C2OC2CC(C)(N)C(O)C(C)O2)Oc2ccc(cc2Cl)C1O (centres unmarked) [XXXVIII, Glucose-C6-N-4-(4-chlorophenyl)benzoyl Vancomycin] | 0.16 (≈ 0.0962 µM) | 0.4 (≈ 0.241 µM) | 1.0 (≈ 0.601 µM) | 0.63 (≈ 0.379 µM) | 0.32 (≈ 0.192 µM) | 0.32 (≈ 0.192 µM) | 50< μg/mL | – | – | – | – | – | – | –
